This passage reports Ki results from ChEMBL document CHEMBL1153203, “Proposed structural basis of interaction of piperine and related compounds with monoamine oxidases” (Bioorg Med Chem Lett, 2010).

In assay [1] the target is T1, Amine oxidase [flavin-containing] A (Mus musculus, UniProt Q64133).
T1 sequence (Q64133 whole entry): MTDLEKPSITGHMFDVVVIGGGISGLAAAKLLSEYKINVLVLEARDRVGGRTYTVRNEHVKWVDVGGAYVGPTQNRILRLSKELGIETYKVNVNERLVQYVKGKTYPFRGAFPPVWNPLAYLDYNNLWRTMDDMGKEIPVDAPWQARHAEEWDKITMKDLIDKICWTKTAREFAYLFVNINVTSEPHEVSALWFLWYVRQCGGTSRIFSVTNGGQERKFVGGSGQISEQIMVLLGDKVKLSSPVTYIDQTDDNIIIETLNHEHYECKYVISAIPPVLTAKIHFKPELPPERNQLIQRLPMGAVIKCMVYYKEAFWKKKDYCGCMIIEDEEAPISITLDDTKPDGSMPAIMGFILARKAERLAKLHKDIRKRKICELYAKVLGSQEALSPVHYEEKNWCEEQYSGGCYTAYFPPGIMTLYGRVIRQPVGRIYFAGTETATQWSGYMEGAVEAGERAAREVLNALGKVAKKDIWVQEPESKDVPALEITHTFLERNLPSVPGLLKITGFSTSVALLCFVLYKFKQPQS
Nature of the assay: Inhibition of mouse brain MAOA.

The target in assay [2] is T2, Amine oxidase [flavin-containing] B (Mus musculus, UniProt Q8BW75).
T2 sequence (Q8BW75 whole entry): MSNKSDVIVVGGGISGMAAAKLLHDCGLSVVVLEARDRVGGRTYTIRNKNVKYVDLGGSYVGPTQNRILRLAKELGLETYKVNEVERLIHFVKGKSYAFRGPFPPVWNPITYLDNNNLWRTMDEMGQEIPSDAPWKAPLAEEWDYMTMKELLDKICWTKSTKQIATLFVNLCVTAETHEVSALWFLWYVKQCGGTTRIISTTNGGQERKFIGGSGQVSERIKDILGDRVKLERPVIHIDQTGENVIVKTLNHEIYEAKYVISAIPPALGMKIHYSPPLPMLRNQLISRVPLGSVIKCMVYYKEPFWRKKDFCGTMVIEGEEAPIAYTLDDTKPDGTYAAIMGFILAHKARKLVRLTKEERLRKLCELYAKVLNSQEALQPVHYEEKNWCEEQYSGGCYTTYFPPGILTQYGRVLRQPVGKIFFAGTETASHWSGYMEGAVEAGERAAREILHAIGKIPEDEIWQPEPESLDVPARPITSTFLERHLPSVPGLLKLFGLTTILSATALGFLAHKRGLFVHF
The assay can be described thus: Inhibition of mouse brain MAOB.

Assay [3] addresses T3, Amine oxidase [flavin-containing] A (Rattus norvegicus, UniProt P21396).
T3 sequence (P21396 whole entry): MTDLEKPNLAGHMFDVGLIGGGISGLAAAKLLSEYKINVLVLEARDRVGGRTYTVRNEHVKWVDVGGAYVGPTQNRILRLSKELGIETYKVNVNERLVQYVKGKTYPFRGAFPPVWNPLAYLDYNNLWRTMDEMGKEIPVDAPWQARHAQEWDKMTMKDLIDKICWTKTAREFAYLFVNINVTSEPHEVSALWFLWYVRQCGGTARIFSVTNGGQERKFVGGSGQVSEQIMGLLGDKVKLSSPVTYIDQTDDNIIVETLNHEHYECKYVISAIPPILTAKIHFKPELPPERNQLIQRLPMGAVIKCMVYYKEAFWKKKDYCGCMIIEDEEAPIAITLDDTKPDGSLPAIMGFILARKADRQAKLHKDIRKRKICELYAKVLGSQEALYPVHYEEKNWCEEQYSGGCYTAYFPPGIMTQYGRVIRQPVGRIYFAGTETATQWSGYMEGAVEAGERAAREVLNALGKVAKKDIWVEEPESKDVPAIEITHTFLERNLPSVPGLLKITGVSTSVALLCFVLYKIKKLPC
The assay can be described thus: Inhibition of MAOA in rat brain mitochondria.

For assay [4], the target named is T4, Amine oxidase [flavin-containing] B (Rattus norvegicus, UniProt P19643).
T4 sequence (P19643 whole entry): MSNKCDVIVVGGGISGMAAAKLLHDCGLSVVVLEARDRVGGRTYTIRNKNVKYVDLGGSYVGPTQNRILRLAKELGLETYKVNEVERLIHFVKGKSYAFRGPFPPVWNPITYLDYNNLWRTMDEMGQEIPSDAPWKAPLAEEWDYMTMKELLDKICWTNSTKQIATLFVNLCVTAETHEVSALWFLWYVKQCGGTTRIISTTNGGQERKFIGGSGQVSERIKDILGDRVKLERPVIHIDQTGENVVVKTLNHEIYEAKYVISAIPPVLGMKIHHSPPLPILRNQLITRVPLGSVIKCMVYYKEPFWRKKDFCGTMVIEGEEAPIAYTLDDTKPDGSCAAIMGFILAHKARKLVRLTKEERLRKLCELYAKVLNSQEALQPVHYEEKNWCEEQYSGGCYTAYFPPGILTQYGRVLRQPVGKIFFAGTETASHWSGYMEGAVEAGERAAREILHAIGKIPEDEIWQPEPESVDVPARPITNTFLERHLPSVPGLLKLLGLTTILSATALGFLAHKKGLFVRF
The assay can be described thus: Inhibition of MAOB in rat brain mitochondria.

What is called Ki is the equilibrium dissociation constant of an inhibitor or competing ligand from its target. A lower Ki goes with a stronger hold on the target.

In the case of `COC(=O)/C=C/C=C/c1ccc2c(c1)OCO2` [METHYL PIPERATE], the Ki in assay [1] turned out to be 27.1 µM; in assay [2], 1.6 µM.

On to `O=C(/C=C/C=C/c1ccc2c(c1)OCO2)N1CCCCC1` [PIPERINE], for which the Ki was determined as 19 µM in assay [1], 49.3 µM in assay [3], 3.19 µM in assay [2] and 91.3 µM in assay [4].
